Values after ≈ are worked out from the molar mass of the structure shown. Read-outs that look alike come from different tables or passages of the source.
Experiments:
[1] = system: P. mirabilis ATCC 7002 and tolC::Tn5-kan2 EN1490; experiment: MIC, P. mirabilis laboratory strains; assay type: cell-based; conditions: Proteus mirabilis
Method: (§1) Minimum inhibitory concentration (MIC) values were determined according to the Clinical Laboratory Standards Institute guidelines. Frequency of resistance was determined by plating ~5 × 10^8 bacterial cells on agar-solidified media plates containing test compound at concentrations corresponding to four times the measured solid-media MIC of the strains. Colonies were counted after 24 h, restreaked onto media containing the same concentration of compound, and the MIC remeasured against the assayed compound. Genomic DNA from isolated clones was sequenced by paired-end sequencing on an Illumina MiSeq device. Complete experimental details available in SI Appendix. […]
(§2) Minimum inhibitory concentration (MIC) determination. Broth microdilution and agar dilution MIC assays were conducted according to CLSI guidelines (M07-2012). Appropriate inoculation suspension density was assessed using a Sensititre Nephelometer with a Sensititre 0.5 […]
(§3) McFarland Standard. […]
Strain construction. The efflux-defective P. mirabilis strain EN1490 was constructed using EZ-Tn5 <KAN-2> Transposome mutagenesis with TypeOne Restriction Inhibitor. Approximately 3000 independent clones were screened for increased susceptibility to chloramphenicol (8 mg/L), yielding 2 independent clones with insertions in the gene tolC. […]

[2] = system: clinical MDR E. coli isolates; experiment: MIC, clinical multi-drug resistant E. coli isolates; assay type: cell-based; conditions: Escherichia coli
Method: as §1, §2, §3
Whole-genome sequencing and data analysis. Genomic DNA of selected clones was prepared using an Epicentre MasterPure Complete DNA Purification Kit. Whole-genome sequencing libraries were prepared using an Illumina Nextera XT Library Preparation Kit. The libraries were sequenced using an Illumina MiSeq device with a V3 600-cycle reagent kit. Whole-genome sequencing data was analyzed using CLC Genomics Workbench Version 11. To determine the genotype of MDR strains from the ENABLE strain collection, de novo assembled contigs were […]

[3] = system: E. coli EC 106-09 (EN122); experiment: Neutropenic mouse peritonitis model, E. coli; assay type: in vivo, mice; conditions: single sc dose, modeled efficacy curves; for ED50: Escherichia coli
Method: PK and safety studies were done the Latvian Institute for Organic Synthesis (Riga, Latvia) and in vivo efficacy studies were done at Statens Serum Institut (Copenhagen, Denmark). Assays were done in accordance with the relevant permits at the respective sites (SI Appendix). For PK studies, plasma samples were taken from mice dosed subcutaneously and the samples were analyzed by UPLC/MS/MS. For in vivo efficacy studies, neutropenic mice were infected intraperitoneally with 10^6 bacteria and treated with subcutaneously with test compounds 1 h after infection. The mice were euthanized 4 h after treatment and serially diluted samples of blood and peritoneal fluid were plated onto blood agar plates. Complete experimental details available in SI Appendix.
Lantmännen) and water. The experimental procedures were performed in accordance with the guidelines of the European Community and local laws and policies (Directive 2010/63/EU), and all of the procedures were approved by Food and Veterinary Service, Riga, Latvia. […]
Bacterial strains and inoculum. E. coli EC 106-09 (EN122) and K. pneumoniae SSI #3010 (EN124) are clinical isolates from Denmark. Bacterial suspensions for inoculation of mice were prepared […]
at room temperature from fresh overnight cultures on 5% blood agar plates produced by SSI diagnostica (Copenhagen Denmark). The inoculum was prepared immediately before inoculation by suspending colonies in sterile 0.9% saline to an optical density of 0.13 at 540 nm, giving a density of 10^8 CFU/ml and further diluted in 0.9% saline to 2 x 10^6 CFU/ml before injecting into the mice. For each experiment, the size of the inoculum was determined by making ten-fold dilutions in 0.9% saline, of which 20 µl was plated on 5% blood agar plates with subsequent counting of colonies after incubation overnight at 35°C in ambient air.
Mice. Outbred female CD-1 mice 26-30 gram (Envigo, Netherlands) were housed at the animal facility at Statens Serum Institut. The temperature was 22 °C +/- 2 °C and the humidity was 55 +/- 10%. The mice were housed in individually ventilated type 3 macrolone cages with bedding from Tapvei. The air changes per hour were approximately 8-12 times (70-73 times per hours inside cages), and light/dark period was in 12-hours interval of 6 a.m.- 6 p.m./6 p.m – 6 a.m.
The mice had ad libitum access to domestic quality drinking water and food Teklad Global diet 2916C-Envigo) and occasionally peanuts and sunflower seeds (Køge Korn A/S). Further, the animals were offered Enviro-Dri nesting material and cardboard houses (Bio-serv).
Mouse peritonitis model. The mice were rendered neutropenic by injecting 0.5 mL cyclophosphamide solution, 200 mg/kg intraperitoneally at 4 days and 100 mg/kg at 1 day prior to inoculation. 1 h before inoculation, mice were treated orally with […] Nurofen (20 mg ibuprofen/mL corresponding to approximately 30 mg/kg) as a pain relief. Inoculation was performed by intraperitoneal injection of 0.5 ml of the bacterial suspension containing log 6
CFU. The mice were treated subcutaneously with 0.25 – 0.30 mL based on weight, in the neck region with a single dose of compound at 1 hour post inoculation. Mice were monitored for clinical signs of discomfort. 4 h after treatment the mice were anesthetized and blood was collected by heart puncture into EDTA tubes and thereafter mice were euthanized by cervical dislocation and peritoneal washes were performed by injecting 2 ml of sterile saline intraperitoneally, followed by gentle massage of the abdomen and opening the peritoneum to collect fluid. Full blood and peritoneal fluids were serially diluted (ten-fold dilutions) and 20 µl was plated on blood agar plates produced at the SSI diagniostica (Copenhagen, Denmark) with subsequent counting of colonies after incubation overnight at 35°C in ambient. All animal experiments were approved by the National Committee of Animal Ethics – Animal Experiment Inspectorate under the Danish Ministry of Justice.
Statistical analyses. […]

[4] = ATCC7002, read-out: MIC P. mirabilis ATCC 7002
[5] = ATCC7002, read-out: MIC P. mirabilis EN1490
[6] = blood, read-out: ED50, blood, E. coli
[7] = peritoneal fluid, read-out: ED50, peritoneal fluid, E. coli

Structure (SMILES) | MIC [1, 4] | MIC [1, 5] | MIC ([2]; read-out: MIC E. coli EN0134) | MIC ([2]; read-out: MIC E. coli EN0135) | MIC ([2]; read-out: MIC E. coli EN0136) | MIC ([2]; read-out: MIC E. coli EN0137) | MIC ([2]; read-out: MIC E. coli EN0138) | MIC ([2]; read-out: MIC E. coli EN0139) | MIC ([2]; read-out: MIC E. coli EN0303) | MIC ([2]; read-out: MIC E. coli EN0481) | ED50 [3, 6] | ED50 [3, 7] | 1-log effective dose, blood, E. coli ([3]; blood) | 2-log effective dose, blood, E. coli ([3]; blood) | 3-log effective dose, blood, E. coli ([3]; blood) | 1-log effective dose, peritoneal fluid, E. coli ([3]; peritoneal fluid) | 2-log effective dose, peritoneal fluid, E. coli ([3]; peritoneal fluid)
Cc1cc(C#N)nc(N2CCN(S(=O)(=O)c3ccc(NC(=O)c4cc(CNCCCN)ccc4N(C)S(C)(=O)=O)cc3)CC2)n1.Cl.Cl [EBL-3599] | > 64 µg/mL | 4 µg/mL | 2 µg/mL | 2 µg/mL | 2 µg/mL | 4 µg/mL | 2 µg/mL | 4 µg/mL | 16 µg/mL | 2 µg/mL | 20 mg/kg | 29.6 mg/kg | 28.3 mg/kg | 42.8 mg/kg | 63.4 mg/kg | 45.9 mg/kg | 70.0 mg/kg
Cc1cc(C#N)nc(N2CCN(S(=O)(=O)c3ccc(NC(=O)c4cc(CN5CC(CN)C5)ccc4N(C)S(C)(=O)=O)cc3)CC2)n1 [EBL-3647] | > 64 µg/mL | 16 µg/mL (≈ 24 µM) | 2 µg/mL (≈ 2.99 µM) | 2 µg/mL (≈ 2.99 µM) | 4 µg/mL (≈ 5.99 µM) | 2 µg/mL (≈ 2.99 µM) | 4 µg/mL (≈ 5.99 µM) | 4 µg/mL (≈ 5.99 µM) | 16 µg/mL (≈ 24 µM) | 1 µg/mL (≈ 1.5 µM) | 12.3 mg/kg | 13.6 mg/kg | 14.5 mg/kg | 19.6 mg/kg | 27.6 mg/kg | 20.8 mg/kg | 31.2 mg/kg

— PMC11009625, “Antibiotic class with potent in vivo activity targeting lipopolysaccharide synthesis in Gram-negative bacteria” (Proceedings of the National Academy of Sciences of the …, 2024)
